Experimental data published in patent US20260285850A1, “SUBSTITUTED OXAZOLIDINONES AND IMIDAZOLINONES AS HERBICIDES” (FMC CORPORATION, priority 2023, published 2026).

How the values were obtained:
Type in all cases: in vivo
[1] = test system: green foxtail (Setaria viridis); assay: Test A preemergence soil spray, visual injury rating 0-100; settings: 10 days, 0 = no effect, 100 = complete control
In short: (§1)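 Visual injury ratings (0, no effect; 100, complete control) were assigned relative to untreated plants 10 days after treatment. Test chemicals, formulated with a surfactant-containing non-phytotoxic solvent, were applied in loam-sand soil either as a directed soil spray before emergence or to emerged plants, and plants were kept in a greenhouse.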

[2] = test system: ryegrass, Italian (italian ryegrass, Lolium multiflorum); assay: as above; settings: 10 days, 0 = no effect, 100 = complete control
In short: as §1

[3] = test system: kochia (Bassia scoparia); assay: as above; settings: 10 days, 0 = no effect, 100 = complete control
In short: as §1

[4] = test system: oat, wild (wild oat, Avena fatua); assay: as above; settings: 10 days, 0 = no effect, 100 = complete control
In short: as §1

[5] = test system: palmer (palmer amaranth, palmer pigweed, Amaranthus palmeri); assay: as above; settings: 10 days, 0 = no effect, 100 = complete control
In short: as §1

[6] = test system: wheat (Triticum aestivum); assay: as above; settings: 10 days, 0 = no effect, 100 = complete control
In short: as §1

[7] = test system: soybean (Glycine max); assay: as above; settings: 10 days, 0 = no effect, 100 = complete control
In short: as §1

[8] = test system: blackgrass (Alopecurus myosuroides); assay: as above; settings: 10 days, 0 = no effect, 100 = complete control
In short: as §1

[9] = test system: corn (Zea mays); assay: as above; settings: 10 days, 0 = no effect, 100 = complete control
In short: as §1

[10] = test system: ragweed (common ragweed, Ambrosia artemisiifolia); assay: as above; settings: 10 days, 0 = no effect, 100 = complete control
In short: as §1

[11] = test system: barnyardgrass (Echinochloa crus-galli); assay: as above; settings: 10 days, 0 = no effect, 100 = complete control
In short: as §1

[12] = test system: rice (Oryza sativa); assay: Test B flooded paddy test, visual plant response rating 0-100; settings: 250 g ai/ha, Flood, applied to paddy water, evaluated after 13 days
In short: (§2)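 Each species was raised to two leaves before flooding to a 3 cm depth and dosing the water with compound. Injury was assessed by eye after 13 days under greenhouse conditions.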

[13] = test system: sedge, umbrella (small-flower umbrella sedge, Cyperus difformis); assay: as above; settings: 250 g ai/ha, Flood, applied to paddy water, evaluated after 13 days
In short: as §2

[14] = test system: ducksalad (Heteranthera limosa); assay: as above; settings: 250 g ai/ha, Flood, applied to paddy water, evaluated after 13 days
In short: as §2

[15] = test system: barnyardgrass (Echinochloa crusgalli); assay: as above; settings: 250 g ai/ha, Flood, applied to paddy water, evaluated after 13 days
In short: as §2

[16] = test system: green foxtail (Setaria viridis); assay: Test A postemergence application, visual injury rating 0-100; settings: Postemergence, 10 days, 0 is no effect, 100 is complete control
In short: as §1

[17] = test system: horseweed (Erigeron canadensis); assay: as above; settings: Postemergence, 10 days, 0 is no effect, 100 is complete control
In short: as §1

[18] = test system: ryegrass, Italian (italian ryegrass, Lolium multiflorum); assay: as above; settings: Postemergence, 10 days, 0 is no effect, 100 is complete control
In short: as §1

[19] = test system: galium (catchweed bedstraw, Galium aparine); assay: as above; settings: Postemergence, 10 days, 0 is no effect, 100 is complete control
In short: as §1

[20] = test system: kochia (Bassia scoparia); assay: as above; settings: Postemergence, 10 days, 0 is no effect, 100 is complete control
In short: as §1

[21] = test system: oat, wild (wild oat, Avena fatua); assay: as above; settings: Postemergence, 10 days, 0 is no effect, 100 is complete control
In short: as §1

[22] = test system: palmer (palmer amaranth, palmer pigweed, Amaranthus palmeri); assay: as above; settings: Postemergence, 10 days, 0 is no effect, 100 is complete control
In short: as §1

[23] = test system: wheat (Triticum aestivum); assay: as above; settings: Postemergence, 10 days, 0 is no effect, 100 is complete control
In short: as §1

[24] = test system: soybean (Glycine max); assay: as above; settings: Postemergence, 10 days, 0 is no effect, 100 is complete control
In short: as §1

[25] = test system: blackgrass (Alopecurus myosuroides); assay: as above; settings: Postemergence, 10 days, 0 is no effect, 100 is complete control
In short: as §1

[26] = test system: corn (Zea mays); assay: as above; settings: Postemergence, 10 days, 0 is no effect, 100 is complete control
In short: as §1

[27] = test system: ragweed (common ragweed, Ambrosia artemisiifolia); assay: as above; settings: Postemergence, 10 days, 0 is no effect, 100 is complete control
In short: as §1

[28] = test system: barnyardgrass (Echinochloa crus-galli); assay: as above; settings: Postemergence, 10 days, 0 is no effect, 100 is complete control
In short: as §1

In the case of `CNC(=O)C1C=CC(NC(=O)C2(C)CN(c3cc(Cl)cc(Cl)c3)C(=O)O2)C1` (stereo not shown) [Compound 47], the “Foxtail, Green plant response rating (0 to 100 scale)” value (from here on “Foxtail, Green plant response rating”) ([1]; 125 g ai/ha) is reported as 30, the “Foxtail, Green plant response rating” value ([1]; 500 g ai/ha) is reported as 100 and the “Ryegrass, Italian plant response rating (0 to 100 scale)” value (“Ryegrass, Italian plant response rating” for short) ([2]; 125 g ai/ha) is reported as 70. The “Ryegrass, Italian plant response rating” value ([2]; 500 g ai/ha) was 90, the “Kochia plant response rating (0 to 100 scale)” value (“Kochia plant response rating” below) ([3]; 125 g ai/ha) was 90 and the “Kochia plant response rating” value ([3]; 500 g ai/ha) was 100. The “Oat, Wild plant response rating (0 to 100 scale)” value (“Oat, Wild plant response rating” below) ([4]; 125 g ai/ha) was 90, the “Oat, Wild plant response rating” value ([4]; 500 g ai/ha) was 90 and the “Amaranth, Palmer plant response rating (0 to 100 scale)” value ([5]; 125 g ai/ha) was 80. The “Amaranth, Palmer plant response rating (0 to 100 scale)” value ([5]; 500 g ai/ha) was 100, the “Wheat plant response rating (0 to 100 scale)” value (shortened to “Wheat plant response rating”) ([6]; 125 g ai/ha) was 20 and the “Wheat plant response rating” value ([6]; 500 g ai/ha) was 80. For the same compound, the “Soybean plant response rating (0 to 100 scale)” value (“Soybean plant response rating” for short) ([7]; 125 g ai/ha) was 10, the “Soybean plant response rating” value ([7]; 500 g ai/ha) was 0 and the “Blackgrass plant response rating (0 to 100 scale)” value (from here on “Blackgrass plant response rating”) ([8]; 125 g ai/ha) was 10. The “Blackgrass plant response rating” value ([8]; 500 g ai/ha) was 90, the “Corn plant response rating (0 to 100 scale)” value (“Corn plant response rating” for short) ([9]; 125 g ai/ha) was 30 and the “Corn plant response rating” value ([9]; 500 g ai/ha) was 70. The “Ragweed plant response rating (0 to 100 scale)” value (shortened to “Ragweed plant response rating”) ([10]; 125 g ai/ha) was 40, the “Ragweed plant response rating” value ([10]; 500 g ai/ha) was 60 and the “Barnyardgrass plant response rating (0 to 100 scale)” value (shortened to “Barnyardgrass plant response rating”) ([11]; 125 g ai/ha) was 40. For the same compound, the “Barnyardgrass plant response rating” value ([11]; 500 g ai/ha) was 100, the “Plant response rating, Rice (0 to 100 scale, 0 is no effect and 100 is complete control)” value [12] was 0 and the “Plant response rating, Sedge, Umbrella (0 to 100 scale, 0 is no effect and 100 is complete control)” value [13] was 0. The “Plant response rating, Ducksalad (0 to 100 scale, 0 is no effect and 100 is complete control)” value [14] was 30, the “Plant response rating, Barnyardgrass (0 to 100 scale, 0 is no effect and 100 is complete control)” value [15] was 0 and the “Foxtail, Green plant response rating” value ([16]; 125 g ai/ha) was 20. The “Foxtail, Green plant response rating” value ([16]; 500 g ai/ha) was 90, the “Horseweed plant response rating (0 to 100 scale)” value ([17]; 125 g ai/ha) was 50 and the “Horseweed plant response rating (0 to 100 scale)” value ([17]; 500 g ai/ha) was 40. The “Ryegrass, Italian plant response rating” value ([18]; 125 g ai/ha) was 30, the “Ryegrass, Italian plant response rating” value ([18]; 500 g ai/ha) was 70 and the “Galium plant response rating (0 to 100 scale)” value ([19]; 125 g ai/ha) was 80. For the same compound, the “Galium plant response rating (0 to 100 scale)” value ([19]; 500 g ai/ha) was 80, the “Kochia plant response rating” value ([20]; 125 g ai/ha) was 70 and the “Kochia plant response rating” value ([20]; 500 g ai/ha) was 80. The “Oat, Wild plant response rating” value ([21]; 125 g ai/ha) was 20, the “Oat, Wild plant response rating” value ([21]; 500 g ai/ha) was 20 and the “Amaranth, Palmer / Pigweed, Palmer plant response rating (0 to 100 scale)” value ([22]; 125 g ai/ha) was 80. The “Amaranth, Palmer / Pigweed, Palmer plant response rating (0 to 100 scale)” value ([22]; 500 g ai/ha) was 100, the “Wheat plant response rating” value ([23]; 125 g ai/ha) was 10 and the “Wheat plant response rating” value ([23]; 500 g ai/ha) was 10. The “Soybean plant response rating” value ([24]; 125 g ai/ha) was 30, the “Soybean plant response rating” value ([24]; 500 g ai/ha) was 50 and the “Blackgrass plant response rating” value ([25]; 125 g ai/ha) was 20. For the same compound, the “Blackgrass plant response rating” value ([25]; 500 g ai/ha) was 70, the “Corn plant response rating” value ([26]; 125 g ai/ha) was 80 and the “Corn plant response rating” value ([26]; 500 g ai/ha) was 90. For the same compound, the “Ragweed plant response rating” value ([27]; 125 g ai/ha) was 40, the “Ragweed plant response rating” value ([27]; 500 g ai/ha) was 50 and the “Barnyardgrass plant response rating” value ([28]; 125 g ai/ha) was 0. The “Barnyardgrass plant response rating” value ([28]; 500 g ai/ha) was 80.
